In brackets after ≈: the same amount, converted by molar mass.
Tests used:
[1] = test system: Staphylococcus aureus MRSA; experiment: Minimum inhibitory concentration (MIC) in vitro, agar dilution method; assay type: cell-based; details: S. MRSA (10 strains), clinically isolated
Description: (§1) Hydrates Samples: • The 1/2 hydrates prepared according to Example 2; • Content (purity % wt): 99.0%; • The 1/12 hydrates prepared according to Example 253; • Content (purity % wt): 98.9%; • The 2/7 hydrates prepared according to Example 106; • Content (purity % wt): 98.8%; • The 2/5 hydrates prepared according to Example 162; • Content (purity % wt): 99.0%; • The 3/4 hydrates prepared according to Example 337; • Content (purity % wt): 98.8%; • Preparation: dissolved in DMSO, and further diluted with sterile distilled water to desired concentration. • The hydrates samples were supplied by Sichuan Beilike Biotechnology LTD.
(§2) Anhydrous Sample: • The anhydrous compounds prepared according to Example 1. • Content (purity % wt): 98.6%; • Preparation: dissolved in DMSO, and further diluted with sterile distilled water to desired concentration; • The anhydrous sample was supplied by Sichuan Beilike Biotechnology LTD.
(§3) Control Samples • Vancomycin: provided by Sichuan Beilike Biotechnology LTD, purchased from Eli Lilly Japan K.K. • Lot No.: WM16151 (production date: Apr. 10, 2007, expiration date: Apr. 9, 2009). • Specification: 500 mg/bottle; solubility (physicochemical properties): soluble in water. • Linezolid (LZ): provided by Sichuan Beilike Biotechnology LTD.
(§4) Bacteria Strains • Clinically isolated strains: clinically isolated bacterial pathogens collected in Sichuan and Beijing areas from March 2007 to May 2008. • Species include: Staphylococcus aureus MRSA, Staphylococcus aureus MSSA, S. epidermidis MRSE, S. epidermidis MSSE, E. feacalis, and E. feacium, a total of 51 strains. • Quality control strains: Staphylococcus aureus […] strain kept in Sichuan Industrial Institute of Antibiotics, purchased from the medical testing center of the Ministry of Health, China.
(§5) Experimental Method: • Measurement of the minimum inhibitory concentration (MIC) in vitro: • The minimum inhibitory concentration (MIC) of each test sample against test strains was measured by using the agar dilution method recommended by the U.S. National Committee for Clinical Laboratory Standards (CLSI/NCCIs).
(§6) Based on the CLSI/NCCL's testing standard with respect to vancomycin and linezolid (see Table 6), the minimum inhibitory concentration (MIC) values of every strain were reported, and the MIC50 (the concentration that inhibits 50% of the different strains of bacteria), MIC90 (the concentration that inhibits 90% of the different strains of bacteria), and MICrange (the range of the MIC value of the tested strains) were observed.

[2] = test system: S. epidermidis MRSE; experiment: as above; assay type: cell-based
Description: as §1, §2, §3, §4, §5, §6

[3] = test system: S. epidermidis MSSE; experiment: as above; assay type: cell-based
Description: as §1, §2, §3, §4, §5, §6

[4] = test system: E. feacalis; experiment: as above; assay type: cell-based
Description: as §1, §2, §3, §4, §5, §6

[5] = test system: Staphylococcus aureus MSSA; experiment: as above; assay type: cell-based; details: S. MSSA (11 strains), clinically isolated
Description: as §1, §2, §3, §4, §5, §6

[6] = test system: E. feacium; experiment: as above; assay type: cell-based
Description: as §1, §2, §3, §4, §5, §6

[7] = Solubility in different solvents according to Chinese Pharmacopeia (2005 edition); assay type: physicochemical; details: at the given solute:solvent ratio
Description: The solubility of the (S)—[N-3-(3′-fluoro-4′-(4″-phenylpiperazinyl))phenyl-2-oxo-5-oxazolelidinyl]methylacetamide hydrates was tested with different solvents, and the test results are shown in Tables 15-19. The solubility was measured according to Chinese Pharmacopeia (2005 edition).

[8] = S. ep MRSE (10 strains), clinically isolated
[9] = S. ep MSSE (10 strains), clinically isolated
[10] = E. feacalis (5 strains), clinically isolated
[11] = E. feacium (5 strains), clinically isolated

CC(=O)NC[C@H]1CN(c2ccc(N3CCN(c4ccccc4)CC3)c(F)c2)C(=O)O1 [Anhydrous compound]
MIC50 [1]: 2 µg/mL (≈ 4.85 µM)
MIC90 [1]: 2 µg/mL (≈ 4.85 µM)
MICrange [1]: 1 to 2 µg/mL
MIC50 [2, 8]: 2 µg/mL (≈ 4.85 µM)
MIC90 [2, 8]: 2 µg/mL (≈ 4.85 µM)
MICrange [2, 8]: 2 µg/mL
MIC ([2]; strain S. ep MRSE4 (Table 8 No. 9)): 2 µg/mL (≈ 4.85 µM)
MIC ([2]; strain S. ep MRSE20 (Table 8 No. 6)): 2 µg/mL (≈ 4.85 µM)
MIC ([2]; strain S. ep MRSE87 (Table 8 No. 13)): 2 µg/mL (≈ 4.85 µM)
MIC ([2]; strain S. ep MRSE90 (Table 8 No. 10)): 2 µg/mL (≈ 4.85 µM)
MIC ([2]; strain S. ep MRSE101 (Table 8 No. 7)): 2 µg/mL (≈ 4.85 µM)
MIC ([2]; strain S. ep MRSE105 (Table 8 No. 11)): 2 µg/mL (≈ 4.85 µM)
MIC ([2]; strain S. ep MRSE140 (Table 8 No. 14)): 2 µg/mL (≈ 4.85 µM)
MIC ([2]; strain S. ep MRSE142 (Table 8 No. 12)): 2 µg/mL (≈ 4.85 µM)
MIC ([2]; strain S. ep MRSE210 (Table 8 No. 15)): 2 µg/mL (≈ 4.85 µM)
MIC ([2]; strain S. ep MRSE211 (Table 8 No. 8)): 2 µg/mL (≈ 4.85 µM)
MIC50 [3, 9]: 1 µg/mL (≈ 2.42 µM)
MIC90 [3, 9]: 2 µg/mL (≈ 4.85 µM)
MICrange [3, 9]: 1 to 2 µg/mL
MIC ([3]; strain S. ep MSSE88 (Table 8 No. 5)): 2 µg/mL (≈ 4.85 µM)
MIC ([3]; strain S. ep MSSE118 (Table 8 No. 2)): 1 µg/mL (≈ 2.42 µM)
MIC ([3]; strain S. ep MSSE137 (Table 8 No. 4)): 2 µg/mL (≈ 4.85 µM)
MIC ([3]; strain S. ep MSSE140 (Table 8 No. 3)): 1 µg/mL (≈ 2.42 µM)
MIC ([3]; strain S. ep MSSE153 (Table 8 No. 1)): 2 µg/mL (≈ 4.85 µM)
MIC50 [4, 10]: 4 µg/mL (≈ 9.7 µM)
MIC90 [4, 10]: 8 µg/mL (≈ 19.4 µM)
MICrange [4, 10]: 2 to 8 µg/mL
MIC ([4]; strain Efa 54 (Table 8 No. 20)): 4 µg/mL (≈ 9.7 µM)
MIC ([4]; strain Efa 116 (Table 8 No. 16)): 4 µg/mL (≈ 9.7 µM)
MIC ([4]; strain Efa 907 (Table 8 No. 19)): 2 µg/mL (≈ 4.85 µM)
MIC ([4]; strain Efa 3006 (Table 8 No. 18)): 4 µg/mL (≈ 9.7 µM)
MIC ([4]; strain Efa 33748 (Table 8 No. 17)): 8 µg/mL (≈ 19.4 µM)
MIC50 [5]: 2 µg/mL (≈ 4.85 µM)
MIC90 [5]: 2 µg/mL (≈ 4.85 µM)
MICrange [5]: 1 to 2 µg/mL
MIC50 [6, 11]: 4 µg/mL (≈ 9.7 µM)
MIC90 [6, 11]: 8 µg/mL (≈ 19.4 µM)
MICrange [6, 11]: 2 to 8 µg/mL
MIC ([6]; strain Efm 98 (Table 8 No. 21)): 4 µg/mL (≈ 9.7 µM)
MIC ([6]; strain Efm 171 (Table 8 No. 25)): 4 µg/mL (≈ 9.7 µM)
MIC ([6]; strain Efm 197 (Table 8 No. 22)): 2 µg/mL (≈ 4.85 µM)
MIC ([6]; strain Efm N3 (Table 8 No. 23)): 8 µg/mL (≈ 19.4 µM)
MIC ([6]; strain Efm N4 (Table 8 No. 24)): 8 µg/mL (≈ 19.4 µM)

CC(=O)NC[C@H]1CN(c2ccc(N3CCN(c4ccccc4)CC3)c(F)c2)C(=O)O1 [Example 1, (S)—[N-3-(3′-fluoro-4′-(4″-phenylpiperazinyl))phenyl-2-oxo-5-oxazolidinyl]methyl acetamide]
Result ([7]; solvent 0.1N Hydrochloric acid): Dissolved
Result ([7]; solvent 0.1N Sodium hydroxide): Insoluble
Result ([7]; solvent Acetonitrile): Dissolved
Result ([7]; solvent Ethanol): Dissolved
Result ([7]; solvent Methanol): Dissolved
Result ([7]; solvent Water, listed as Anhydride): Insoluble

From US8916567B2, “Certain crystalline hydrates, pharmaceutical compositions thereof and methods for preparation and use thereof” (Universal Technology Alliance, Inc., priority 2009, dated 2014)
